Results: publication PMC13147314 (The Febs Journal, 2025)

What was measured:
PsGK = molecular target: T1, PsGK (Pseudoalteromonas sp. AS-131, UniProt H7CHS4, C325S); assay: G6PD-coupled NADPH assay at […] nm, Lineweaver-Burk; assay type: biochemical; details: 1, 25 and 40 °C
T1 construct: gene glk; full length, cloned in pET-16b, expressed in E. coli BL21 (DE3), purified by ammonium sulfate and anion exchange (no tag mentioned); about 35 kDa subunit, 79 kDa homodimer by gel filtration

EcGK = molecular target: T2, EcGK (Escherichia coli, UniProt P0A6V8); assay: G6PD-coupled NADPH assay at […] nm, Lineweaver-Burk; assay type: biochemical; details: 25 °C, pH 7.6, 20 mM Tris-HCl, 10 mM MgCl2, co-substrate glucose, 1 mM DTT; also measured at 1 and 40 °C
T2 construct: gene glk; full length, cloned in pET-16b, expressed in E. coli BL21 (DE3), purified by ammonium sulfate and anion exchange (no tag mentioned); about 35 kDa subunit, 59 kDa homodimer by gel filtration
T2 sequence (P0A6V8 2-321): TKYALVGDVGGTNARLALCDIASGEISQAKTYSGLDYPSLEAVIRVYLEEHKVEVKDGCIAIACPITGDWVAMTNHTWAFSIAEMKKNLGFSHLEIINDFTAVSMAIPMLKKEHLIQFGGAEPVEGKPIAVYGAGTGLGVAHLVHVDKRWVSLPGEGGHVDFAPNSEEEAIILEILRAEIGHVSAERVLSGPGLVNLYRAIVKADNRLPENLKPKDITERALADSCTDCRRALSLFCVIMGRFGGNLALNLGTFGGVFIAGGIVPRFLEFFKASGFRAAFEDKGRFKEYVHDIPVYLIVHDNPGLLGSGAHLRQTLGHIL

[1] = molecular target: the molecule itself; assay: SEC; gel filtration on HiLoad 16/60 Superdex 200 prep grade; molecular weights estimated and compared with about 35 kDa by SDS/PAGE; monomers to dimer
purified protein = substrate: Nc1ncnc2c1ncn2[C@@H]1O[C@H](COP(=O)(O)OP(=O)(O)OP(=O)(O)O)[C@@H](O)[C@H]1O; assay: purified protein; assay type: biochemical, Pseudoalteromonas sp. AS-131; details: 25 °C, pH 7.6, 20 mM Tris-HCl, 10 mM MgCl2, co-substrate glucose, 1 mM DTT, also measured at 1 and 40 °C

T1 sequence (H7CHS4 entry or part of it C325S): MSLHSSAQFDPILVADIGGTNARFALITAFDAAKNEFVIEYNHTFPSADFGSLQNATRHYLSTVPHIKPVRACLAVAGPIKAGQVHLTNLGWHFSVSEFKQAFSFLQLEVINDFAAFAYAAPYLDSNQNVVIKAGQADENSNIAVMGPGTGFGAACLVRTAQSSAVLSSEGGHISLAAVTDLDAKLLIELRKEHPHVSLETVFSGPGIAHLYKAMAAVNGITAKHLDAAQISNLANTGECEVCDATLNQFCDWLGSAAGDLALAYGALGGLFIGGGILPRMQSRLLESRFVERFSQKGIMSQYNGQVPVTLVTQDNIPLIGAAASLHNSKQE

With Nc1ncnc2c1ncn2[C@@H]1O[C@H](COP(=O)(O)OP(=O)(O)OP(=O)(O)O)[C@@H](O)[C@H]1O [ATP] the K m (PsGK; pH 7.6, 10 mM MgCl2, co-substrate glucose) was “the catalytic efficiency (k cat/K m) of C325S exceeded that of WT” and the K m (EcGK) was 1110 ± 80 µM.

OC[C@H]1OC(O)[C@H](O)[C@@H](O)[C@@H]1O (stereo partly drawn) [glucose] was tested, and the K m (PsGK; pH 7.6, 10 mM MgCl2, co-substrate ATP) was “the catalytic efficiency (k cat/K m) of C325S exceeded that of WT”.

B1: glucokinase from Escherichia coli wild-type (enzyme, Escherichia coli K-12)
chain: TKYALVGDVGGTNARLALCDIASGEISQAKTYSGLDYPSLEAVIRVYLEEHKVEVKDGCIAIACPITGDWVAMTNHTWAFSIAEMKKNLGFSHLEIINDFTAVSMAIPMLKKEHLIQFGGAEPVEGKPIAVYGAGTGLGVAHLVHVDKRWVSLPGEGGHVDFAPNSEEEAIILEILRAEIGHVSAERVLSGPGLVNLYRAIVKADNRLPENLKPKDITERALADSCTDCRRALSLFCVIMGRFGGNLALNLGTFGGVFIAGGIVPRFLEFFKASGFRAAFEDKGRFKEYVHDIPVYLIVHDNPGLLGSGAHLRQTLGHIL
notes: glucokinase (EcGK) of Escherichia coli K-12, encoded by glk, UniProt P0A6V8; the gene was amplified from genomic DNA and cloned into pET-16b; also called EcGK; EcGK WT; source: E. coli BL21 (DE3), purified (ammonium sulfate fractionation, anion exchange HiTrap Q HP)
For B1, the “stoichiometry N” value [1] was 2.

B2: glucokinase from Pseudoalteromonas sp. AS-131 wild-type (enzyme, UniProt H7CHS4 1-332, looked up)
chain: MSLHSSAQFDPILVADIGGTNARFALITAFDAAKNEFVIEYNHTFPSADFGSLQNATRHYLSTVPHIKPVRACLAVAGPIKAGQVHLTNLGWHFSVSEFKQAFSFLQLEVINDFAAFAYAAPYLDSNQNVVIKAGQADENSNIAVMGPGTGFGAACLVRTAQSSAVLSSEGGHISLAAVTDLDAKLLIELRKEHPHVSLETVFSGPGIAHLYKAMAAVNGITAKHLDAAQISNLANTGECEVCDATLNQFCDWLGSAAGDLALAYGALGGLFIGGGILPRMQSRLLESRFVERFSQKGIMSQYNGQVPVTLVTQDNIPLIGAAACLHNSKQE
notes: glucokinase (PsGK) of Pseudoalteromonas sp; AS-131, UniProt H7CHS4; amplified with primers that carry the start and the stop codon and cloned into pET-16b; also called PsGK; PsGK WT; source: E. coli BL21 (DE3), purified (ammonium sulfate fractionation, anion exchange HiTrap Q HP)
In the case of B2, the “stoichiometry N” value [1] is reported as 2 and the Km (purified protein) is reported as 1550 ± 170 µM.
